Source: patent US7718394B2, “Methods for diagnosis and monitoring of neurological disease by detection of an encephalotoxin” (priority 2003, dated 2010)
Entries after “also recorded” stand apart in the source; their conditions may differ.

Test: Inactivation of encephalotoxin by nitrous acid, heparin lyases and sulfatases (loss of neurotoxic activity)
Format: biochemical
Experimental: Structural characterization and inactivation of encephalotoxin (isolated by organic extractions, gel filtration, and sequential C18 HPLC from Aβ-stimulated microglial cell line BV2) was performed by various nitrous acid cleavage protocols. […] Traditionally, heparin lyase I acts primarily on heparin-containing GlcNS(1→4)IdoA2S sequences and heparin lyase III on HS primarily at a GlcNAc(1→4)IdoA or GlcNAc(1→4)GlcA sequence.
1 ml of CSF was fractionated by adsorption chromatography, dried under vacuum, and reconstituted in artificial CSF comprising electrolytes, such as NaCl, and glucose. Increasing amounts of fractionated toxin (range 0.1 to 500 ul equivalents of original sample volume) were added to triplicate cultures. Results were plotted as volume vs. % neuron kill (with kill calculated as % loss of immuno-stained hippocampal neurons against untreated control cultures). […] In order to compare different populations, a CSF Neurotoxicity Index was developed to assign scores that reflect level of neurotoxin. This index was calculated as an ED50 (the equivalent CSF volume that yields 50% of the maximal level of neuron killing).

SMILES: O=NO [nitrous acid]
- inactivation of encephalotoxin released by BV2 microglia (encephalotoxin from Aβ-stimulated microglial cell line BV2, FIG. 1A): inactivated; also recorded: eliminated
- inactivation of encephalotoxin recovered from lumbar CSF of subject with AD (lumbar CSF, AD, FIG. 1C): inactivated
- inactivation of encephalotoxin found in ventricular CSF of AD brain (ventricular CSF of AD brain, FIG. 1B): inactivated
